{"source": "patent US20190070124A1", "about": "“COMPOSITIONS OF CB2 RECEPTOR SELECTIVE AGONISTS FOR TREATMENT OF MENTAL DISORDERS” (priority 2016, published 2019)", "tested_on": "murine model of schizophrenia", "experiment": "Elevated Plus Maze test in the PCP mouse model", "type": "in vivo, mice", "method": "Anxiety as measured by the paucity of time spent on the two, anxiety-provoking, open arms (as opposed to the two enclosed arms) of an “Elevated Plus Maze” was used as a parameter of negative symptoms of schizophrenia (Josselyn and Vaccarino, 1998). The plus maze was elevated 50 cm above the table top. Behavior of each mouse was recorded for 5 min by a video camera and scored using the “EthoVision” software (Noldus Information Technology, Wageningen, The Netherlands), measuring the number of entries as well as the amount of time spent in each arm, open or closed. Increased time spent in the closed arms indicated increased anxiety. Increased time spent in the opened arms indicated anxiolytic behavior (reduced stress).", "key": {"[1]": {"settings": "age 13 weeks, postnatal BCP 10 mg/kg 1 h after PCP"}}, "note": "Entries after “also recorded” stand apart in the source; their conditions may differ."}
{"substance": "trans-(1R,9S)-8-methylene-4,11,11trimethylbicyclo[7.2.0]undec-4-ene [BCP]", "values": [{"measurement": "plus maze open/close or open/(close+open) duration and frequency", "setting": "PND 64, postnatal PCP, BCP 5 mg/kg PND 43-61", "value": "no effect at age 64; also recorded: did not reverse the effects of PCP in plus maze test"}, {"measurement": "behavior in the open arm of the Elevated Plus Maze", "setting": "PND 110, postnatal PCP, BCP 5 mg/kg PND 43-61", "value": "significantly reversed the effects of PCP on behavior in the open arm of the Elevated Plus Maze"}, {"measurement": "time spent in closed arm or open arm", "setting": "age 13 weeks, females and males, postnatal BCP 10 mg/kg 1 h after PCP", "value": "no significant change in the time spent in the closed arm or open arm"}, {"measurement": "time spent in distal end of the opened arm, females", "setting": "[1]", "value": "reversed this effect"}, {"measurement": "time spent in distal end of the opened arm, males", "setting": "[1]", "value": "reversed this effect"}, {"measurement": "behavior in the close arm of the Elevated Plus Maze", "setting": "age 64 days, postnatal PCP, BCP 5 mg/kg PND 43-61", "value": "significantly reversed the effects of PCP on behavior in the close arm of the Elevated Plus Maze"}]}
